{"source": "paper PMC7278776", "about": "“Multidrug Resistance Modulation Activity of Silybin Derivatives and Their Anti-Inflammatory Potential” (Antioxidants, 2020)", "test_system": "ABCB1 (P-gp)", "experiment": "ABCB1 mRNA expression (real-time PCR)", "type": "cell-based, human", "conditions": "10 µM, 48 h, without doxorubicin", "procedure": "The A2780/DOX cell line was seeded into 5 cm Petri dishes with DMEM medium at 1 × 10^5 cell/mL. […] After 48 h of treatment, the cells were washed with PBS and harvested using the standard trypsin-EDTA procedure. The harvested cells were centrifuged (3200× g; 10 min, 4 °C). The supernatant was discarded, and the pellets were washed with 1.5 mL of cooled PBS (5400× g; 10 min, 4 °C). The washing step was repeated with 1 mL of PBS and the cells were centrifuged again (10,000× g; 3 min, 4 °C). Afterwards, the pellets were resuspended in 1 mL of Trizol (Invitrogen, Carlsbad, CA, USA) and transferred into pre-cooled RNase-free microfuge tubes. The samples were stored at −80 °C.\nA Quant-iT RiboGreen RNA Assay Kit (Invitrogen) was used to determine the RNA concentration using the Infinite M200 plate reader (Tecan, Männedor, Switzerland). The cDNA was prepared from 0.5 µg of total RNA using a RevertAid First Strand Synthesis cDNA Kit (MBI Fermentas, Vilnius, Lithuania). The amplification of the ubiquitin C gene fragment was used to determine the quality of cDNA.\nThe experiment was performed using the ViiA7 Real-Time polymerase chain reaction (PCR) System (Life Technologies, Camarillo, CA, USA) with a 384-well block. Before quantitative real-time PCR, the master mix was prepared by mixing 2 µL of 8 × diluted cDNA, 1.75 µL of RNase free water, 1 µL of 5 × HotFIREPol Probe quantitative PCR Mix Plus (Solis Biodyne, Tartu, Estonia) and 0.25 µL of specific 20 × TaqMan Gene Expression Assay (Life Technologies), giving 5 µL of final reaction volume. […] After each extension phase, the fluorescence values were acquired. Duplicate samples were used for measurement and samples with a standard deviation of duplicates > 1.0 cycle threshold (Ct) were re-analyzed. The real time PCR procedure was maintained according to MIQE (Minimum information for publication of quantitative real-time PCR experiments) guidelines. […]", "data": [{"smiles": "COc1cc([C@@H]2Oc3cc([C@H]4Oc5cc(O)cc(O)c5C(=O)[C@@H]4O)ccc3O[C@H]2CO)ccc1O", "note": "[Silybin B, silybin B]", "values": [{"measurement": "downregulation of ABCB1 (P-gp) expression", "value": 79, "unit": "%"}, {"measurement": "ABCB1 Expression Difference", "setting": "A2780/DOX", "value": 0.208}, {"measurement": "ABCB1 Treated vs. Untreated", "setting": "A2780/DOX", "value": "DOWN"}]}]}
